In publication PMC2577671, “Evaluation of Dimebon in cellular model of Huntington's disease” (Molecular Neurodegeneration, 2008) one finds inhibition data, which are given here for 1 compound.

Data set [1] has as its target T1, Nicotinic Acetylcholine alpha1, Bungarotoxin (Homo sapiens, UniProt P02708).
T1 construct: gene CHRNA1
Briefly: biochemical. More on the design: MDS Pharma Lead Profiling screen, binding assays, per cent inhibition, duplicate. The note with it: read-out: % INHIBITION

Another data set concerns the target T2, Potassium Channel hERG (Homo sapiens, UniProt Q12809).
T2 construct: gene KCNH2
Put plainly: in vitro. Also noted: MDS Pharma Lead Profiling screen, binding assays, per cent inhibition, duplicate. As for the experimental part:
The activity of Dimebon against selected set of biochemical targets was performed by MDS Pharma Services . The Dimebon was provided to MDS Pharma as dry powder, dissolved in DMSO and tested in 10 μM concentrations. The standard Lead Profiling + CYP450 screen was performed according to MDS Pharma specifications with additional custom-chosen targets added to the screen as indicated. To further understand potential mechanisms responsible for clinical effects of Dimebon, we evaluated Dimebon against a set of selected biochemical targets. Dimebon evaluation was performed by MDS Pharma Services . The standard Lead Profiling + CYP450 screen was performed with additional custom-selected targets added to the screen. The results of the screen obtained at 10 μM of Dimebon are provided as Additional File 3. […] Low affinity (50–60% inhibition) interactions were also observed for CYP450, 2C19 receptor, voltage-gated L-type Ca^2+ channel, Dopamine D4.2 receptor, and Serotonin 5-HT1 receptor. […] Supplementary file 1750-1326-3-15-S3.pdf: Additional file 3 The results of Dimebon screening against a selected set of biochemical targets. The complete results obtained by MDS Pharma with a selected list of biochemical targets using 10 μM of Dimebon as a probe. The Cat numbers refer to the MDS Pharma Services assay specification. The receptors and species are listed. […]

A further data set has as its target T3, α1A-Adrenergic receptor (Rattus norvegicus, UniProt P43140).
T3 construct: gene Adra1a
Put plainly: MDS Pharma Services binding screen at […].

For a further data set, the target named is T4, α1D-Adrenergic receptor (Homo sapiens, UniProt P25100).
T4 construct: gene ADRA1D
T4 sequence (P25100 whole entry): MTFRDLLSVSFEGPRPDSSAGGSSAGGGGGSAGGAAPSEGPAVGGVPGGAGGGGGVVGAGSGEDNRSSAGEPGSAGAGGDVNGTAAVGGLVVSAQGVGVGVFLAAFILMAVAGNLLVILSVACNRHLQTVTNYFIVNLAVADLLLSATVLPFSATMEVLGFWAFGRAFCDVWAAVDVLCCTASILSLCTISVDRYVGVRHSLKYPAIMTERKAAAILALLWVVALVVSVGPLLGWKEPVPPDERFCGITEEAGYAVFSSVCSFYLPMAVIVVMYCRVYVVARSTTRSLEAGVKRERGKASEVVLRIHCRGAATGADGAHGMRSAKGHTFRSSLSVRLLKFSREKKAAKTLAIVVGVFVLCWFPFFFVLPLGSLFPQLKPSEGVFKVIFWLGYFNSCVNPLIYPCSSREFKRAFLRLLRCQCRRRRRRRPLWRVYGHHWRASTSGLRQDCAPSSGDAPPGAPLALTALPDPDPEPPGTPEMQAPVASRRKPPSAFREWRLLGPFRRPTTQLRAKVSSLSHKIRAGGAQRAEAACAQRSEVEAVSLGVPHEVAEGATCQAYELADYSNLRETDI
Briefly: MDS Pharma Services binding screen at […].

Data set [2] has as its target T5, Serotonin 5-HT5A receptor (Homo sapiens, UniProt P47898).
T5 construct: gene HTR5A
Briefly: MDS Pharma Services binding screen at […].

A further data set concerns the target T6, Serotonin 5-HT6 receptor (Homo sapiens, UniProt P50406).
T6 construct: gene HTR6
Put plainly: MDS Pharma Services binding screen at […].

The target in data set [3] is T7, Histamine H1 receptor (Homo sapiens, UniProt P35367).
T7 construct: gene HRH1
T7 sequence (P35367 whole entry): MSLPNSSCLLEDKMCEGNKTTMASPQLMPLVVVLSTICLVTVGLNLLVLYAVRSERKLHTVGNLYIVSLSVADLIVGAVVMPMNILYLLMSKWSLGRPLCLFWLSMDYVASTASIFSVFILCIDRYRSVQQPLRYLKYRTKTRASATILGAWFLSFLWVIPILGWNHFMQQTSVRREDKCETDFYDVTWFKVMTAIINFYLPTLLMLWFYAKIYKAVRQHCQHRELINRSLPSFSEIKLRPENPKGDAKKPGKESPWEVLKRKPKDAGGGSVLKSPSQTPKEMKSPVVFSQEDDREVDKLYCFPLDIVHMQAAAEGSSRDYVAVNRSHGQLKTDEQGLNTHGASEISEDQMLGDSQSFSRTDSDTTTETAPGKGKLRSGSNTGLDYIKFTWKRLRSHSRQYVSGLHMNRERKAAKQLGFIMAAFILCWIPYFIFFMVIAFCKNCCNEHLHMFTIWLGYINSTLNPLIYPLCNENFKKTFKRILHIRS
Put plainly: biochemical. More on the design: MDS Pharma Lead Profiling screen, binding assays, per cent inhibition, duplicate. As for the experimental part: (§1) The activity of Dimebon against selected set of biochemical targets was performed by MDS Pharma Services . The Dimebon was provided to MDS Pharma as dry powder, dissolved in DMSO and tested in 10 μM concentrations. The standard Lead Profiling + CYP450 screen was performed according to MDS Pharma specifications with additional custom-chosen targets added to the screen as indicated. To further understand potential mechanisms responsible for clinical effects of Dimebon, we evaluated Dimebon against a set of selected biochemical targets. Dimebon evaluation was performed by MDS Pharma Services . The standard Lead Profiling + CYP450 screen was performed with additional custom-selected targets added to the screen. The results of the screen obtained at 10 μM of Dimebon are provided as Additional File 3. […] Low affinity (50–60% inhibition) interactions were also observed for CYP450, 2C19 receptor, voltage-gated L-type Ca^2+ channel, Dopamine D4.2 receptor, and Serotonin 5-HT1 receptor. […] Supplementary file 1750-1326-3-15-S3.pdf: Additional file 3 The results of Dimebon screening against a selected set of biochemical targets. The complete results obtained by MDS Pharma with a selected list of biochemical targets using 10 μM of Dimebon as a probe. The Cat numbers refer to the MDS Pharma Services assay specification. The receptors and species are listed. Dimebon was tested at 10 μM concentratio in duplicate. The % inhibition by Dimebon is shown numerically and graphically for each receptor. Significant targets (defined as % inhibition > 50%) are highlighted in yellow. Click here for file

A further data set addresses T8, α2A-Adrenergic receptor (Homo sapiens, UniProt P08913).
T8 construct: gene ADRA2A
Briefly: biochemical. Also noted: MDS Pharma Lead Profiling screen, binding assays, per cent inhibition, duplicate. As for the experimental part:
as §1

In data set [4] the target is T9, α1B-Adrenergic receptor (Rattus norvegicus, UniProt P15823).
T9 construct: gene Adra1b
T9 sequence (P15823 whole entry): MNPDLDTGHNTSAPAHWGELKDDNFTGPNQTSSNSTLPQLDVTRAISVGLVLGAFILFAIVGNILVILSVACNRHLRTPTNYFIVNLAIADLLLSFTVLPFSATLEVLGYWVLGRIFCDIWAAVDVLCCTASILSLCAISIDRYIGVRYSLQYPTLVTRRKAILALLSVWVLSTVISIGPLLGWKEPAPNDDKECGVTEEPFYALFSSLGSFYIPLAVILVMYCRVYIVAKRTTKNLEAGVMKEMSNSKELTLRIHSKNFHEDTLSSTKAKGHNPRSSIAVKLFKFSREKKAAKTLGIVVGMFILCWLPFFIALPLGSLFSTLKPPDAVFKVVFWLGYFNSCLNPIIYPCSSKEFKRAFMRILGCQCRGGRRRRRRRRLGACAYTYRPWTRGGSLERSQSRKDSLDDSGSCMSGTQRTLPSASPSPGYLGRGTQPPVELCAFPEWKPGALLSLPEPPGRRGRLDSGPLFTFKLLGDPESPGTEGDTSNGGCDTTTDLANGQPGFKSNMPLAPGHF
Briefly: biochemical. Also noted: MDS Pharma Lead Profiling screen, binding assays, per cent inhibition, duplicate. As for the experimental part:
as §1

In the next data set the target is T10, Neuropeptide Y Y1 (Homo sapiens, UniProt P25929).
T10 construct: gene NPY1R
Briefly: biochemical. More on the design: MDS Pharma Lead Profiling screen, binding assays, per cent inhibition, duplicate. As for the experimental part:
as §1

The target in the next data set is T11, Muscarinic M2 (Homo sapiens, UniProt P08172).
T11 construct: gene CHRM2
T11 sequence (P08172 whole entry): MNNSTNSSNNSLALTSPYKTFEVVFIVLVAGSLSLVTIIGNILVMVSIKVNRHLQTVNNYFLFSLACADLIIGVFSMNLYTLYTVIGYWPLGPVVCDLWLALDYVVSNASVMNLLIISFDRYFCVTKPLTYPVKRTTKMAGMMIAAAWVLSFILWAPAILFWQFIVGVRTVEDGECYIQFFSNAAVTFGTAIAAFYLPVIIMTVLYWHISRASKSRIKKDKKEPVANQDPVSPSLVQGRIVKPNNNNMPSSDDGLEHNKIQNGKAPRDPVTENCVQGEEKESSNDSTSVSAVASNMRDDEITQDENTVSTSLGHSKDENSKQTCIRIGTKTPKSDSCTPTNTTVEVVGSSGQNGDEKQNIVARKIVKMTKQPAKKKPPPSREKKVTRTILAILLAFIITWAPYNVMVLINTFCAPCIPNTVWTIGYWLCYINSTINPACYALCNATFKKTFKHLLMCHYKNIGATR
Put plainly: biochemical. More on the design: MDS Pharma Lead Profiling screen, binding assays, per cent inhibition, duplicate. As for the experimental part: as §1

Data set [5] has as its target T12, Transporter, Norepinephrine (NET) (Homo sapiens, UniProt P23975).
T12 construct: gene SLC6A2
Briefly: biochemical. More on the design: MDS Pharma Lead Profiling screen, binding assays, per cent inhibition, duplicate. How it is done:
as §1

The target in the next data set is T13, Neuropeptide Y Y2 (Homo sapiens, UniProt P49146).
T13 construct: gene NPY2R
Put plainly: biochemical. More on the design: MDS Pharma Lead Profiling screen, binding assays, per cent inhibition, duplicate. As for the experimental part:
as §1

In another data set the target is T14, GABAB1A (Homo sapiens, UniProt Q9UBS5).
T14 construct: gene GABBR1; isoform 1A
Put plainly: biochemical. Also noted: MDS Pharma Lead Profiling screen, binding assays, per cent inhibition, duplicate. As for the experimental part: as §1

Another data set deals with T15, Muscarinic M1 (Homo sapiens, UniProt P11229).
T15 construct: gene CHRM1
Briefly: biochemical. More on the design: MDS Pharma Lead Profiling screen, binding assays, per cent inhibition, duplicate. As for the experimental part: as §1

Data set [6] addresses T9, α1B-Adrenergic receptor. Put plainly: MDS Pharma Services binding screen at […].
The target in the next data set is T16, CYP450, 2D6 (Homo sapiens, UniProt P10635).
T16 construct: gene CYP2D6
Briefly: in vitro. Also noted: MDS Pharma Lead Profiling + CYP450 screen, enzyme assays, per cent inhibition, duplicate. How it is done: as §1

The target of the next data set is T17, CYP450, 2C9 (Homo sapiens, UniProt P11712).
T17 construct: gene CYP2C9
Put plainly: in vitro. Also noted: MDS Pharma Lead Profiling + CYP450 screen, enzyme assays, per cent inhibition, duplicate. As for the experimental part:
as §1

The target in another data set is T18, CYP450, 1A2 (Homo sapiens, UniProt P05177).
T18 construct: gene CYP1A2
T18 sequence (P05177 whole entry): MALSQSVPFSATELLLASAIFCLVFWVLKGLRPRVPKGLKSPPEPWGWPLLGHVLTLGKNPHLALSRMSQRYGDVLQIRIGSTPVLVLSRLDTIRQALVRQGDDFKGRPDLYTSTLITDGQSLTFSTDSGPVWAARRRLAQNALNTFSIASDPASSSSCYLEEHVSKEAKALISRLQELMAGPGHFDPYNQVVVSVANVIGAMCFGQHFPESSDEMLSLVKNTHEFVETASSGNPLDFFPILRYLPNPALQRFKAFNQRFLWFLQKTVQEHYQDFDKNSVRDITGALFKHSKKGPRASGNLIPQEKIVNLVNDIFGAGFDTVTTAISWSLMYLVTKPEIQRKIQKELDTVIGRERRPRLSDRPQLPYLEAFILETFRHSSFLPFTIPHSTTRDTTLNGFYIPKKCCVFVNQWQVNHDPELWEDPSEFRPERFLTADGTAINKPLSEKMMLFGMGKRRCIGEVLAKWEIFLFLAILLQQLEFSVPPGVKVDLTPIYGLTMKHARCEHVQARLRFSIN
Briefly: in vitro. Also noted: MDS Pharma Lead Profiling + CYP450 screen, enzyme assays, per cent inhibition, duplicate. How it is done: as §1

The target of the next data set is T19, CYP450, 2C19 (Homo sapiens, UniProt P33261).
T19 construct: gene CYP2C19
Put plainly: in vitro. More on the design: MDS Pharma Lead Profiling + CYP450 screen, enzyme assays, per cent inhibition, duplicate. How it is done: as §1

Data set [7] has as its target T7, Histamine H1 receptor. Briefly: MDS Pharma Services binding screen at […].
Data set [8] deals with T20, Serotonin 5-HT2c receptor (Homo sapiens, UniProt P28335).
T20 construct: gene HTR2C
T20 sequence (P28335 33-458): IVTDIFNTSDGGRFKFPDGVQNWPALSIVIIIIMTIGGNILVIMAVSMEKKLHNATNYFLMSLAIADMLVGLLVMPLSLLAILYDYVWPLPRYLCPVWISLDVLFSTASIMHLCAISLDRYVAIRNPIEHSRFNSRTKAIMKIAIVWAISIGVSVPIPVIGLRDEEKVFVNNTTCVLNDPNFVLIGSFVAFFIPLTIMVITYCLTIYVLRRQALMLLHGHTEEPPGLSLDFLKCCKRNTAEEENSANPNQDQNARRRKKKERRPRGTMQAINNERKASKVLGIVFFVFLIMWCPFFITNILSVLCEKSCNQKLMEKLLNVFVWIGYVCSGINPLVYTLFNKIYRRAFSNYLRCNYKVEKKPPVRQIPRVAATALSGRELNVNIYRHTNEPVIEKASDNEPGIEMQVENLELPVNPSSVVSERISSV
Briefly: MDS Pharma Services binding screen at […].

T6 sequence (P50406 whole entry): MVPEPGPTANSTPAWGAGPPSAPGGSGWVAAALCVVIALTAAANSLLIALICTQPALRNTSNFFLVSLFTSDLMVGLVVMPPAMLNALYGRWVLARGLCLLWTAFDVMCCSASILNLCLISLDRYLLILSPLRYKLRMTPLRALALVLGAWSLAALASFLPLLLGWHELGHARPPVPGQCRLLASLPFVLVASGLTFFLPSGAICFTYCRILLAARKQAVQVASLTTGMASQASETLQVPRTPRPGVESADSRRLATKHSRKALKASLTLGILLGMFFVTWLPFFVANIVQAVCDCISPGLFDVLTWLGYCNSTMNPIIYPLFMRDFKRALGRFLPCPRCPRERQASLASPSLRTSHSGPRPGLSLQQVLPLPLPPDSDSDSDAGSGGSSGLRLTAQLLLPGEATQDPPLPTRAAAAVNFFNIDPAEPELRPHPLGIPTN
T3 sequence (P43140 whole entry): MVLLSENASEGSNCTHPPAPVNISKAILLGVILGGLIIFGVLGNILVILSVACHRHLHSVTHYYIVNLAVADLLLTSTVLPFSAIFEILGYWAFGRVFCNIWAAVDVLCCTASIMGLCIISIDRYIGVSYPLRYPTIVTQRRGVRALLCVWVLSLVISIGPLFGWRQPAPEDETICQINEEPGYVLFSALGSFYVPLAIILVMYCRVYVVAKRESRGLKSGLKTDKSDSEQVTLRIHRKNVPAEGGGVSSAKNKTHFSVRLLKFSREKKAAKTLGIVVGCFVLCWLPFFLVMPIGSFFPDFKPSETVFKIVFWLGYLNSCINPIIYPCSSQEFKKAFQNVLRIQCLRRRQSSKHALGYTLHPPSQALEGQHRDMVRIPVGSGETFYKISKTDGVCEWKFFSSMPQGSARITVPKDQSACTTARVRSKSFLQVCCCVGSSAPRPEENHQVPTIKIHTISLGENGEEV
T12 sequence (P23975 whole entry): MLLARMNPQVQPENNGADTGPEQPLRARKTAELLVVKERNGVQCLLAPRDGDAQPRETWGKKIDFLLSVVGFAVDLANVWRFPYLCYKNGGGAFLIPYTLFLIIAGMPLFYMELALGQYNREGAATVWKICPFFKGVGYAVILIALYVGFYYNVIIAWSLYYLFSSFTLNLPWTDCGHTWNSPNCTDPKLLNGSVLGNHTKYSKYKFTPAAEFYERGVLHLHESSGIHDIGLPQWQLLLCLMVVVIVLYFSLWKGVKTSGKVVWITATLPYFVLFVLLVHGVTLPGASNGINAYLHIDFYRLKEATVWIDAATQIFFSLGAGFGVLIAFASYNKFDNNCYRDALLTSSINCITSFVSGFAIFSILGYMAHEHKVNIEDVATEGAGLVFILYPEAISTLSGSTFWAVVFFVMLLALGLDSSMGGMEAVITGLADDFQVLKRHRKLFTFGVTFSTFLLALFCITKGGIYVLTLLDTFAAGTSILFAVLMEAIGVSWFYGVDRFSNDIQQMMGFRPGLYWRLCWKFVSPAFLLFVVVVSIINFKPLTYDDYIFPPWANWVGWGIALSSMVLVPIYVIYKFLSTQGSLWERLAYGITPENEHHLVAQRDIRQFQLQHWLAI
T1 sequence (P02708 whole entry): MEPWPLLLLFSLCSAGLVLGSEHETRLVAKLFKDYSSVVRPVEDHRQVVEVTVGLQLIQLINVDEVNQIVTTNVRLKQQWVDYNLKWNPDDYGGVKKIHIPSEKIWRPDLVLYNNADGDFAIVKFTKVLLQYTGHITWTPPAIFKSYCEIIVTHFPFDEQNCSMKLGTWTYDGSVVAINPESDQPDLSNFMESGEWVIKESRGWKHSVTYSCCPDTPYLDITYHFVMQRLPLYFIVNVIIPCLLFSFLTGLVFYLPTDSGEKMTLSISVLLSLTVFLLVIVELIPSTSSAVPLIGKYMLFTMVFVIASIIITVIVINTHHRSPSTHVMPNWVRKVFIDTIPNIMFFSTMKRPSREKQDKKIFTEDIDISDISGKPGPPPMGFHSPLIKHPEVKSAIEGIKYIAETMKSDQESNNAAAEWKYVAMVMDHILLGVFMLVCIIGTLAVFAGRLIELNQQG

On to `Cc1ccc2c(c1)c1c(n2CCc2ccc(C)nc2)CCN(C)C1` [Dimebon, 2,3,4,5-Tetrahydro-2,8-dimethyl-5-(2-(6-methyl-3-pyridyl)ethyl)-1H-pyrido(4,3-b)indole], for which the inhibition (commonly the relative decrease from the control value, in per cent) at 10 µM was 1% in data set [1]; 45% on Potassium Channel hERG; above 90% on α1A-Adrenergic receptor; above 90% on α1D-Adrenergic receptor; above 90% in [2]; above 90% at Serotonin 5-HT6 receptor. Further, the inhibition at 10 µM at Histamine H1 receptor [3] is 101%; at α2A-Adrenergic receptor, 97%; on α1B-Adrenergic receptor [4], 100%; at Neuropeptide Y Y1 it was 4%; on Muscarinic M2, 8%; in [5] it was 20%. The inhibition at 10 µM on Neuropeptide Y Y2 was -5%; on GABAB1A it was -10%; on Muscarinic M1, 9%; at α1B-Adrenergic receptor [6], above 90%; at CYP450, 2D6, 16%; at CYP450, 2C9, 2%. The inhibition at 10 µM at CYP450, 1A2 is 5%; at CYP450, 2C19, 55%; at Histamine H1 receptor [7] it was above 90%; in data set [8], above 90%.
